According to PubChem BioAssay (NCI):
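Assay format: 96-well plates, 48-hour exposure. Here, GI50 denotes the concentration required for 50% inhibition of growth. Definition used: TGI = concentration required for complete inhibition of growth.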

Columns and labels:
Assay in all cases: NCI-60 cell line screen, 48 h
[1] = system: SN12C renal
[2] = system: MDA-N
[3] = system: RPMI-8226 leukemia
[4] = system: UO-31 renal
[5] = system: SK-MEL-28 melanoma
[6] = system: K-562 leukemia
[7] = system: ACHN renal
[8] = system: MDA-MB-435
[9] = system: MDA-MB-231 breast
[10] = system: NCI-H226 lung

Row | Compound | TGI [1] | TGI [2] | TGI [3] | TGI [4] | TGI [5] | TGI [6] | TGI [7] | TGI [8] | TGI [9] | TGI [10] | GI50 [4] | GI50 [1] | GI50 [3] | GI50 [9] | GI50 [6] | GI50 [7] | GI50 [8]
1 | Cc1cccc(Nc2cn(CCOc3ccccc3)c(=O)[nH]c2=O)c1 | 81.7 µM | > 100 µM | > 100 µM | > 100 µM | > 100 µM | > 100 µM | > 100 µM | > 100 µM |  |  |  |  |  |  |  |  | 
2 | COc1cc(/C=C\c2ccc(SC)cc2)cc(OC)c1OC | > 100 µM |  | 25.2 µM | 45.3 µM | > 100 µM | > 46.8 µM | > 100 µM | > 100 µM | > 100 µM |  |  |  |  |  |  |  | 
3 | CCOc1ccc(N=NC2C(=O)N(C(=O)CC(=O)Nc3ccc(Cl)cc3)N=C2C)cc1 (configuration not stated) | > 100 µM | > 100 µM | > 100 µM | > 100 µM | > 100 µM |  | > 100 µM | > 100 µM | > 100 µM | > 100 µM |  |  |  |  |  |  | 
4 | NS(=O)(=O)c1ccc(CNC(=S)NC(=O)Nc2ccc(Cl)c(Cl)c2)cc1 | 33.3 µM | 46.4 µM | 41.6 µM | 32.5 µM | 69.8 µM | 39.5 µM | 46 µM |  | 25.5 µM |  |  |  |  |  |  |  | 
5 | C[Si](C)(C)C#C[I+]c1ccccc1 | 64.7 µM |  |  | > 100 µM | > 100 µM | > 100 µM | > 100 µM |  |  | > 100 µM |  |  |  |  |  |  | 
6 | N#Cc1nn(-c2ccc(Cl)cc2)c(N)c2c(=N)n3nc(-c4ccccc4)cc3nc12 | > 100 µM |  |  | 98.5 µM |  | > 100 µM | > 100 µM |  |  | > 100 µM | 31.5 µM |  |  |  |  |  | 
7 | O=c1c(-c2ccccc2)c[nH]c2cc([N+](=O)[O-])c(/C(Cl)=C/c3ccccc3)cc12 | 43.7 µM |  | 9.98 µM | 36.8 µM | > 55.1 µM | 20.7 µM |  |  |  | 34 µM |  |  |  |  |  |  | 
8 | COC(=O)c1nc2c(C)c(O)c(O)c([C@H](C)CCC=C(C)C)c2o1 |  |  | > 100 µM | 41.5 µM | > 100 µM | > 100 µM | 53.8 µM | > 100 µM | > 100 µM | 34.2 µM |  |  |  |  |  |  | 
9 | OC(Cn1cncn1)(Cn1cncn1)c1ccc(Cl)cc1Cl | > 100 µM |  | > 100 µM | > 100 µM | > 100 µM | > 100 µM | > 100 µM |  |  | > 100 µM |  |  |  |  |  |  | 
10 | COc1cccc2c1C(=O)c1c(O)c3c(c(O)c1C2=O)C[C@@](O)(C(C)=O)C[C@@H]3OC1CC(N)C(O)C(C)O1 (some centres not stated) |  |  |  |  |  |  |  |  |  |  |  | < 0.0179 µM | 0.0136 µM | 0.0534 µM | < 0.01 µM | < 0.011 µM | 0.0877 µM
11 | CC(C)C[C@H](NC(=O)[C@@H](Cc1cccc2ccccc12)NC(=O)N1CCOCC1)B(O)O | 20.4 µM |  | 17.4 µM | 41.5 µM | 6.92 µM | 46.6 µM | > 100 µM | 3.79 µM | 20.3 µM | 3.2 µM |  |  |  |  |  |  | 
12 | CC(C)(C)NCC(O)COc1cccc2[nH]c(C#N)cc12 (configuration not stated) | > 100 µM | > 100 µM | > 100 µM | > 100 µM | > 100 µM |  | > 100 µM | > 100 µM | > 100 µM | > 100 µM |  |  |  |  |  |  | 
13 | c1ccc(/C(=N/Nc2cnccn2)c2ncccn2)cc1 | > 100 µM | > 100 µM | > 100 µM | > 100 µM | > 100 µM | > 100 µM | > 100 µM | > 100 µM | > 100 µM |  |  |  |  |  |  |  | 
14 | CC(C)(C)c1cc(C2COC(=O)COCCOCC(=O)OCCOCCO2)cc(C(C)(C)C)c1O (configuration not stated) | 44.6 µM |  | > 100 µM | 30.5 µM | > 100 µM | > 100 µM | 37.2 µM | > 100 µM | > 100 µM | > 100 µM |  |  |  |  |  |  | 
15 | CC(C)(C)[C@@H]1NC(=O)CN1C(=O)OCc1ccccc1 | > 100 µM |  | > 100 µM | > 100 µM | > 100 µM | > 100 µM | > 100 µM | > 100 µM | > 100 µM | > 100 µM |  |  |  |  |  |  | 
16 | CCOC(=O)Nc1ccc(S(=O)(=O)Nc2ccc(Br)cc2)cc1 | > 100 µM | > 100 µM | > 100 µM | > 100 µM | > 100 µM | 34.4 µM | 85.2 µM | > 100 µM | 93.5 µM |  |  |  |  |  |  |  | 
17 | CCOC(=O)Cc1csc(/N=C\c2c(O)c3ccccc3oc2=O)n1 |  |  | 51.6 µM | > 100 µM | > 100 µM |  | > 100 µM | 85.4 µM |  | 97.8 µM |  |  |  |  |  |  | 
18 | CC1(C(O)c2ccccc2)CN(C(C)(C)C)C(=O)/C1=C\Sc1ccccc1 (configuration not stated) | > 100 µM | > 100 µM | > 100 µM | > 100 µM | > 100 µM | > 100 µM | > 100 µM | > 100 µM | > 100 µM |  |  |  |  |  |  |  | 
19 | N#Cc1ccc(Nc2nc3nc[nH]c3c(=O)[nH]2)cc1 | > 100 µM | > 100 µM | > 100 µM | > 100 µM | > 100 µM |  | > 100 µM | > 100 µM | > 100 µM | > 100 µM |  |  |  |  |  |  | 
20 | CC(=O)O[C@H]1C(=O)[C@]2(C)[C@@H](OC(=O)OCC(O)CO)C[C@H]3OC[C@@]3(OC(C)=O)[C@H]2[C@H](OC(=O)c2ccccc2)[C@]2(O)C[C@H](OC(=O)[C@H](O)[C@@H](NC(=O)c3ccccc3)c3ccccc3)C(C)=C1C2(C)C (some centres not stated) | > 100 µM |  | < 0.01 µM | > 100 µM | 39.1 µM | > 100 µM | > 100 µM |  | 17.2 µM |  |  |  |  |  |  |  | 
21 | CCC1OC2C(CC=C(C)C)=C3OC(C)(O)C(C)(CC)C(O)C3=C3OC(=O)C=C1C32 (configuration not stated) |  |  | > 100 µM | > 100 µM | > 100 µM | > 100 µM | > 100 µM | > 100 µM | 75.5 µM | > 100 µM |  |  |  |  |  |  | 
22 | CCOC(=O)c1ccc(N=C/C=C(\Nc2ccc(C(=O)OCC)cc2)c2ccc3ccccc3c2)cc1 | 58.6 µM |  | 52.1 µM | > 100 µM | 61.1 µM | 56.7 µM | > 100 µM | 33.3 µM | 80.6 µM | 96.9 µM |  |  |  |  |  |  | 
23 | CCOC(=O)c1c(NC(=S)NCc2ccccc2)sc2c1CCN(C)C2 | > 100 µM | > 100 µM | > 100 µM | > 100 µM |  | 46.1 µM | > 100 µM |  | > 100 µM | > 100 µM |  |  |  |  |  |  | 
